Measured values from patent publication US20260250320A1, “LIPIDATED PEPTIDE INHIBITORS OF INTERLEUKIN-23 RECEPTOR” (Janssen Pharmaceutica NV, priority 2023, published 2026).
pIC50: −log10 of the molar value. *1 amine or outer side, *2 acyl side, *3 side chain or, on linkers, in order; H or OH if unused. Where a SMILES comes first, the peptide text is derived from it. Bridges are numbered along the chain shown (N, C = ends). Side-chain parts run from the residue outwards. [ ]: non-standard residue; d: D form. The star is where a group is joined. X41 = C[N+](C)(CCCCC*)CCOCCOCCNC(=O)COCCOCCCC(=O)CC[C@H](CC(=O)CCCCCCCCCCCCCCCCC(=O)O)C(=O)O; X34 = O=C(O)CCCCCCCCCCCCCCCCC(=O)C[C@@H](CCC(=O)NCCOCCOCC(=O)NCCOCCOCCN*)C(=O)O; X4 = C[N+](C)(CCCCCCc1ccc(C[C@H](N[*:1])C(=O)[*:2])cc1)CCOCCOCCN[*:3]; Me3N+(CH2)2O(CH2)2O(CH2)2CO = C[N+](C)(C)CCOCCOCCC(=O)*; PEG12 = NCCOCCOCCOCCOCCOCCOCCOCCOCCOCCOCCOCCOCCC(=O)O; Trp(7-Me,2,3-dihydro) = Cc1cccc2c1NCC2C[C@H](N)C(=O)O; Trp(7-Me) = Cc1cccc2c(C[C@H](N)C(=O)O)c[nH]c12; C18 diacid = O=C(O)CCCCCCCCCCCCCCCCC(=O)*; γGlu = O=C(O)[C@H](CCC(=O)[*:2])N[*:1]; 2Nal = N[C@@H](Cc1ccc2ccccc2c1)C(=O)O; AEF = NCCOc1ccc(C[C@H](N)C(=O)O)cc1; 3Pal = N[C@@H](Cc1cccnc1)C(=O)O; Lys(Me) = CNCCCC[C@H](N)C(=O)O; Pen = CC(C)(S)[C@H](N)C(=O)O; Thp = NC1(C(=O)O)CCOCC1; X1 = C[N+](C)(C)CCCCC*; AEEA = NCCOCCOCC(=O)O; Sar = CNCC(=O)O

Tests used:
IL-23R = target: T1, IL-23R (Homo sapiens, UniProt Q5VWK5); test: IL23R Reporter Assay; format: cell-based; conditions: HEK293 cells containing IL-23R, IL-12Rβ1 and STAT-inducible firefly luciferase reporter; 10 ng/mL IL-23 (EC90); 5 h
T1 construct: HEK293 cells containing IL-23R, IL-12Rβ1 and a firefly luciferase reporter gene driven by a STAT-inducible promoter (Promega); host or cells: HEK293
T1 sequence (Q5VWK5 24-629): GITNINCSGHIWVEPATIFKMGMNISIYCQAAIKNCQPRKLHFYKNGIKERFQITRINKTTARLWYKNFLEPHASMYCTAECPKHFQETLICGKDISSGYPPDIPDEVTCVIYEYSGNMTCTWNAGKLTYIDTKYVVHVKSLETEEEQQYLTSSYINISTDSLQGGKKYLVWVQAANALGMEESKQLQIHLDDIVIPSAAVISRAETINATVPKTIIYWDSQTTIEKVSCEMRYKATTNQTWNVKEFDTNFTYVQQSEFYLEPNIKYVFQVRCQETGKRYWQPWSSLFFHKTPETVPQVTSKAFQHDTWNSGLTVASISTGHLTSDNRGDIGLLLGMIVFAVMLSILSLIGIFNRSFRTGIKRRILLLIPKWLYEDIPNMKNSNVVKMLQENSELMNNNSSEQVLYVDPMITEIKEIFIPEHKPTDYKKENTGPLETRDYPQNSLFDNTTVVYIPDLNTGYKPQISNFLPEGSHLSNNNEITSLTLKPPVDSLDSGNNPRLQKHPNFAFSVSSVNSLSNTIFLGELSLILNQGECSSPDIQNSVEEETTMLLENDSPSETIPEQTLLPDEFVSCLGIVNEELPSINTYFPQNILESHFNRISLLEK
Procedure, shortened: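 IC50 values were fitted with a 4-parameter Hill equation to luciferase signal, scaled between IL-23-only wells (0% inhibition) and 30 μM reference inhibitor (100%). The readout was a STAT-inducible reporter in IL-23R/IL-12Rβ1 HEK293 cells, stimulated with added 10 ng/mL IL-23 (EC90) for 5 h at 37° C and developed with BioGlo.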

[1] = system: IL-23-stimulated phosphorylated STAT3 in peripheral blood mononuclear cells (PBMCs); test: PBMC pSTAT3 Assay; format: cell-based; conditions: PBMCs from healthy donors; 30 min preincubation with peptide; IL-23 5 ng/mL for 30 min; phospho-STAT3 by MSD
Procedure, shortened: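 Phospho-STAT3 quantified by Meso Scale assay in lysates of PBMCs exposed to IL-23 (5 ng/mL, 30 min, 37 °C) after 30 min peptide pretreatment. Cells were cryopreserved donor PBMCs activated 4 days with anti-CD3 plus IL-1β (100 ng/mL) and starved ~4 h; IC50 reported.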

pIC50 (IL-23R) | Compound | pIC50 [1]
≤ 6.30 | CC(=O)N(C)CCCC[C@@H]1NC(=O)[C@H](Cc2c[nH]c3c(C)cccc23)NC(=O)[C@H]([C@@H](C)O)NC(=O)[C@H](CC(=O)N(C)C)NC(=O)[C@@H](NC(=O)CCOCCOCC[N+](C)(C)C)C(C)(C)SSC(C)(C)[C@@H](C(=O)N[C@@H](Cc2ccc(CCCCCC[N+](C)(C)CCOCCOCCNC(=O)COCCOCCNC(=O)CC[C@H](NC(=O)CCCCCCCCCCCCCCCCC(=O)O)C(=O)O)cc2)C(=O)N[C@@H](Cc2ccc3ccccc3c2)C(=O)NC2(C(=O)N[C@@H](CC(N)=O)C(=O)N[C@@H](Cc3cccnc3)C(=O)N(C)CC(=O)N(C)C)CCOCC2)NC1=O [compound 143, cPEG3aCO-Pen(3)-N(N(Me)2)-T-7MeW-K(NMeAc)-Pen(3)-TMAPF(PEG2PEG2gEC18OH)-2Nal-THP-N-3Pya-Sar-CON(Me)2] ({Me3N+(CH2)2O(CH2)2O(CH2)2CO}-[Pen]D(NMe2)T[Trp(7-Me)][Lys(Me)](Ac)[Pen][X4]([AEEA-γGlu-C18 diacid])[2Nal][Thp]N[3Pal][Sar]-NMe2; disulfide 1-6) | ≤ 8.30
> 7.30 | CC(=O)N(C)CCCC[C@@H]1NC(=O)[C@H](Cc2c[nH]c3c(C)cccc23)NC(=O)[C@H]([C@@H](C)O)NC(=O)[C@H](CC(=O)N(C)C)NC(=O)[C@@H](NC(=O)CCOCCOCC[N+](C)(C)C)C(C)(C)SSC(C)(C)[C@@H](C(=O)N[C@@H](Cc2ccc(OCCCCC[N+](C)(C)CCOCCOCCNC(=O)COCCOCCCC(=O)CC[C@H](CC(=O)CCCCCCCCCCCCCCCCC(=O)O)C(=O)O)cc2)C(=O)N[C@@H](Cc2ccc3ccccc3c2)C(=O)NC2(C(=O)N[C@@H](CCCCN(C)C(C)=O)C(=O)N[C@@H](CC(N)=O)C(=O)N[C@@H](Cc3cccnc3)C(=O)N(C)CC(=O)N(C)C)CCOCC2)NC1=O [compound 144, cPEG3aCO-Pen(3)-N(N(Me)2)-T-7MeW-K(NMeAc)-Pen(3)-TMAPF(PEG2PEG2gEC18OH)-2Nal-THP-K(NMeAc)-N-3Pya-Sar-CON(Me)2] ({Me3N+(CH2)2O(CH2)2O(CH2)2CO}-[Pen]D(NMe2)T[Trp(7-Me)][Lys(Me)](Ac)[Pen]Y(X41)[2Nal][Thp][Lys(Me)](Ac)N[3Pal][Sar]-NMe2; disulfide 1-6) | 8.30 to 9.30
6.30 to 7.30 | CC(=O)N(C)CCCC[C@@H]1NC(=O)[C@H](Cc2c[nH]c3c(C)cccc23)NC(=O)[C@H]([C@@H](C)O)NC(=O)[C@H](CC(=O)N(C)C)NC(=O)[C@@H](NC(=O)CCOCCOCC[N+](C)(C)C)C(C)(C)SSC(C)(C)[C@@H](C(=O)N[C@@H](Cc2ccc(OCCCCC[N+](C)(C)C)cc2)C(=O)N[C@@H](Cc2ccc3ccccc3c2)C(=O)NC2(C(=O)N[C@@H](CCCCN(C)C(C)=O)C(=O)N[C@@H](CC(N)=O)C(=O)N[C@@H](Cc3cccnc3)C(=O)N(C)CC(=O)NCCOCCOCCNC(=O)COCCOCCNC(=O)CC[C@H](CC(=O)CCCCCCCCCCCCCCCCC(=O)O)C(=O)O)CCOCC2)NC1=O [compound 145, cPEG3aCO-Pen(3)-N(N(Me)2)-T-7MeW-K(NMeAc)-Pen(3)-TMAPF-2Nal-THP-K(NMeAc)-N-3Pya-Sar-CO(PEG2PEG2gEC18OH)] ({Me3N+(CH2)2O(CH2)2O(CH2)2CO}-[Pen]D(NMe2)T[Trp(7-Me)][Lys(Me)](Ac)[Pen]Y(X1)[2Nal][Thp][Lys(Me)](Ac)N[3Pal][Sar]-X34; disulfide 1-6) | ≤ 8.30
6.30 to 7.30 | CC(=O)NCCCC[C@@H]1NC(=O)[C@H](CC2CNc3c(C)cccc32)NC(=O)[C@H]([C@@H](C)O)NC(=O)[C@H](CC(N)=O)NC(=O)[C@@H](NC(=O)[C@@H](CCCNC(=N)N)NC(C)=O)C(C)(C)SSC(C)(C)[C@@H](C(=O)N[C@@H](Cc2ccc(OCCN)cc2)C(=O)N[C@@H](Cc2ccc3ccccc3c2)C(=O)NCC(=O)N[C@@H](CCCCNC(=O)CCOCCOCCOCCOCCOCCOCCOCCOCCOCCOCCOCCOCCNC(=O)CC[C@H](NC(=O)CCCCCCCCCCCCCCCCC(=O)O)C(=O)O)C(=O)N[C@@H](CC(N)=O)C(=O)N[C@@H](Cc2cccnc2)C(=O)N(C)CC(N)=O)NC1=O (stereo partly drawn) [compound 146, MeCO-r-Pen(3)-N-T-7MeW-K(Ac)-Pen(3)-AEF-2Nal-THP-K(PEG12gEC18OH)-N-3Pya-Sar-CONH2] (Ac-[dR][Pen]NT[Trp(7-Me,2,3-dihydro)]K(Ac)[Pen][AEF][2Nal]GK([PEG12-γGlu-C18 diacid])N[3Pal][Sar]-NH2; disulfide 2-7) | > 9.30
